Measured values published in US7419999B2, “Gamma lactams as prostaglandin agonists and use thereof” (Applied Research Systems ARS Holding N.V., priority 2002, dated 2008).
Like-named read-outs stand apart in the source and are kept apart here.

What was measured:
[1] = target: T1, h-EP4 (Homo sapiens, UniProt P35408); assay: EP4 receptor binding assay (3H-PGE2 SPA)
Procedure: Compounds of the invention were tested in an EP4 receptor binding assay of the following protocol.

[2] = test system: methacholine-induced bronchoconstriction; assay: In vivo inhibition of guinea pig methacholine-induced bronchoconstriction; details: for ED50: Cavia porcellus
Procedure: Guinea pig pulmonary-cholinergic in vivo model is generally used to test the materials for the treatments of asthma in human (Fleisch at al. 1985, K. Pharmacol. Exp. Ther. 233: 148-157). Compounds of the invention are tested in this model.
Groups of 3 Duncan Hartley derived male or female guinea pigs weighing 250±50 g are anesthetized with pentobarbital sodium (50 mg/kg i.p., plus an additional 15 mg/kg i.p. if required) and succinylcholine chloride (2 mg/animal i.p.) is subsequently administered to prevent spontaneous respiration. Body temperature is maintained at 37° to 38° C.
The trachea is cannulated and the guinea pig is ventilated with a Harvard rodent respirator in a closed system. Tracheal pressure is recorded through a side-arm of the cannula connected to a P23ID Statham transducer. Respiratory rate is set at 50 strokes/minute with a stroke volume (approximately 1 ml/100 g) sufficient to produce a baseline tracheal pressure of 6 cm H2O. Mean arterial pressure (BP) is monitored from a cannulated carotid artery, and heart-rate (HR) is obtained from chest electrodes arranged for lead II. The jugular vein is cannulated for i.v. vehicle or drug administration in a volume of 1 ml/kg.
Cholinergic-induced bronchoconstrictor responses, reflected as increases in tracheal pressure (cm H2O), are elicited by administration of methacholine hydrochloride (10 μg/kg base weight i.v.). In vehicle-treated control animals, methacholine-induced bronchoconstriction ranges from 70 to 90 percent of its own maximum response (about 40 to 65 percent of maximum possible bronchoconstriction obtained by tracheal occlusion).
Compounds of the invention are also tested via intratracheal (IT) route of administration. In this other experiment, compound of the invention, reference compound or vehicle is administered IT 10 (5 min for experiment 1 and 2) minutes before methacholine chloride (10 μg/kg i.v.) induced bronchoconstriction. Tracheal pressure (ITP), blood pressure and heart rate are measured immediately as indicated in the material and methods sections.
MED (medium effective dose) is measured.
Compounds of the invention are administered i.v. (10 mg/kg) 5 minutes before subministration of the methacoline hydrochloride challenge in 3 guinea pigs. A 50 percent or more (≧50) inhibition of the induced bronchoconstriction relative to vehicle treated control animals is considered significant.

[3] = test system: mature 10-week CD-1 mice; assay: In vivo ovulation assay (mature mouse ovulation induction model); details: for average of ova obtained: 5IU PMSG priming; for ED50: Mus musculus
Procedure: Ovulation triggering activity of compounds of the invention are tested in a mature mouse ovulation induction model.
Mature 10-week-old CD-mice are used. […] A test compound (based on solubility) is pre-dissolved in ethanol, DMSO or other reagents. Test compound is then diluted with saline or other diluents such as PBS or NP3S (5% N-methyl-pyrrolidinone/30% PEG-400/25% PEG-200/20% Propylene Glycol in saline). PMSG serves to stimulate follicule growth and maturation.
Uterus, oviducts and ovaries were collected and placed in pre-labeled dishes containing phosphate buffered saline (PBS). The collected tissues were transferred to the laboratory and intact oviduct carefully dissected out from uterus and ovary under the dissection microscope. The dissected oviducts were placed on the glass microscopic slide and covered with another slide. Two slides were taped on two edges. The numbers of ovulated ova in the oviducts were counted using upright microscope with 4× objective and recorded.
For evaluating the oral activity of this compound, two experiments were conducted, the first experiment was conducted with non-fasted animals and the second experiment was conducted in 24 h fasted animals (water provided). The compounds of the invention, according to their solubility are pre-dissolved in ethanol, DMSO or other reagents. The compounds of the invention are then diluted with saline or other diluents such as PBS or NP3S before oral administration.

[4] = target: h-EP2 (Homo sapiens, UniProt P43116); assay: Prostaglandin EP2 receptor binding assay (3H-PGE2 SPA)
Procedure: Compounds of the invention were tested in an EP2 receptor binding assay of the following protocol. As referred to herein, the term an “EP2 receptor binding assay” designates the following protocol.

[5] = target: T1, h-EP4; assay: EP4 cAMP assay in HEK293-EBNA cells transfected with pCEP4-hEP4; format: cell-based
Procedure: Compounds of the invention were tested in a total cAMP assay as follows. […] After overnight incubation, the medium was removed from each well and replaced with 45 μl of assay medium consisted of phenol red free D-MEM/F-12, 0.1% BSA (GibcoBRL) and 0.1 mM3-isobutyl-1-methyl-xanthine (Sigma). […] Total cAMP (intra- and extra-cellular) was measured by using a cAMP-screen ELISA System (Tropix, #CS1000).

[6] = test system: TNFα; assay: In vivo inhibition of LPS-induced TNFa release in mice; details: oral; Inhibitory Dose at 50% of the maximum effect
Procedure: The anti-inflammatory activity of compounds of the invention may be assessed after a LPS challenge using the following protocol:
Eight weeks old C3H/HEN mice (IFFA-CREDO, L'arbresle, France) receive an oral treatment with compounds of the invention 6 different doses (0.001, 0.01, 0.1, 1 or 3 and 10 mg/kg in 0.5% CMC/0.25% tween-20). Six mice are used by group. Fifteen minutes later, endotoxins (O111:B4 Sigma, 0.3 mg/kg) are intraperitoneally injected. Heparinized whole blood is collected by decapitation. TNFα level is determined in plasma by ELISA (R & D Systems, Abdingdon, UK). Control animals receive 0.5% CMC/0.25% tween-20 (10 ml/kg) as vehicle. Data obtained from experiments are expressed as the mean±SEM and analysed using one-way analysis of variance (ANOVA) followed by Dunnett's t-test.

[7] = po, Table 3, p.o., read-out: Ovulation Induction (ED50, mg/kg) p.o.
[8] = sc, Table 3, s.c., read-out: Ovulation Induction (ED50, mg/kg) s.c.
[9] = sc, read-out: calculated ED50, ovulation induction
[10] = Table 2, total cAMP, read-out: h-EP4 EC50
[11] = read-out: Ki measured as described in Example 83 (EP4)

Chain of h-EP2 (P43116 whole entry): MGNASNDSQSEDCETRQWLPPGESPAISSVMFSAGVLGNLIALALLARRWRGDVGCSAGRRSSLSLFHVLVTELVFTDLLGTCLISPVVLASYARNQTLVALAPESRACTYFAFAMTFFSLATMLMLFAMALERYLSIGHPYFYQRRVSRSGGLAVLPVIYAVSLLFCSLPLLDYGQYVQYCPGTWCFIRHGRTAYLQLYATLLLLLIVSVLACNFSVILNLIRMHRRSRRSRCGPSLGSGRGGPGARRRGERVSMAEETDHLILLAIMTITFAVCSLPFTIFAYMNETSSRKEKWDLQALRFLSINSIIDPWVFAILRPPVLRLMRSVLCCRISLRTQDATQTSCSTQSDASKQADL
T1 sequence (P35408 whole entry): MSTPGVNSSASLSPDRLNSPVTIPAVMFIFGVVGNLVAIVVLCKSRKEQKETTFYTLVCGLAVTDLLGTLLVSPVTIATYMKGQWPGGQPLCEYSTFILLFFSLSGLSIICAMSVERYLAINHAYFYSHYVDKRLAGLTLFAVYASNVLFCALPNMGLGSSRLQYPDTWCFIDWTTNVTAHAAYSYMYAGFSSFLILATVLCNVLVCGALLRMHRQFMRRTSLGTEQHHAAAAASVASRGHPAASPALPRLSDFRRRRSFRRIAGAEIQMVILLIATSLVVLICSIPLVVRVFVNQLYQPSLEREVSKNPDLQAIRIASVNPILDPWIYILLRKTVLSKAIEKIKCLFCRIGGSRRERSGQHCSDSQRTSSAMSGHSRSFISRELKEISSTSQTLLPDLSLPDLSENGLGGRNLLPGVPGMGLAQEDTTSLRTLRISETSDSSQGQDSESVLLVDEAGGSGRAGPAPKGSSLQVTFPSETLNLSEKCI

Structure (SMILES)	Ki ([1]; Table 1, read-out: h-EP4 Ki)	ED50 [3, 7]	ED50 [3, 8]	Ki ([4]; Table 1, read-out: h-EP2 Ki)	Ki ([1]; Table 2, read-out: h-EP4 Ki)	also measured
CCCCC[C@H](O)/C=C/[C@H]1CCC(=O)N1CCc1ccc(C(=O)O)cc1 [Example 1, 4-(2-{(2R)-2-[(1E,3S)-3-hydroxyoct-1-enyl]-5-oxopyrrolidin-1-yl}ethyl) benzoic acid]	2 nM	22 mg/kg	3.8 mg/kg	120 nM	–	ED50 ([2]; iv, read-out: calculated effective dose (ED50), bronchoconstriction): ~0.0017 mg/kg; ED50 ([2]; IT route of administration, read-out: calculated ED50, bronchoconstriction): 0.0024 mg/kg; calculated ED50, bronchoconstriction ([2]; IT route of administration): 0.72 μg/GP; effect on blood pressure and heart beat ([2]; i.v., 3 10^−5 up to 0.3 mg/kg): not altering neither blood pressure nor heart beat; average of ova obtained ([3]; Group 4: 10 mg/kg s.c.): an average of 25 ova were obtained for Group 4;; average of ova obtained ([3]; Group 5: 30 mg/kg s.c.): an average of 22.4 ova were obtained for Group 5;; ED50 [3, 9]: 3.9 mg/kg; ED50 ([3]; oral, 24 h fasted animals, read-out: calculated ED50, ovulation induction): 21.1 mg/kg; ED50 ([3]; oral, non-fasted animals, read-out: calculated ED50, ovulation induction): 22 mg/kg; activity in the mice ovulation induction model ([3]; subcutaneous (sc), oral (po) and intravenous (iv) routes): active
O=C(O)c1ccc(CCN2C(=O)CC[C@@H]2/C=C/[C@H](O)C2(c3ccccc3)CC2)cc1 [Example 8, 4-(2-{(2R)-2-[(1E,3S)-3-hydroxy-3-(1-phenylcyclopropyl)prop-1-enyl]-5-oxopyrrolidin-1-yl}ethyl)benzoic acid]	25 nM	–	–	1930 nM	–	–
O=C(O)c1ccc(CCN2C(=O)CC[C@@H]2/C=C/[C@@H](O)Cc2cccc(Cl)c2)cc1 [Example 9, 4-(2-{(2R)-2-[(1E,3S)-3-hydroxy-4-(3-chlorophenyl)but-1-enyl]-5-oxopyrrolidin-1-yl}ethyl)benzoic acid]	–	1 mg/kg	–	–	0.5 nM	EC50 [5, 10]: 30 nM
CCCC1([C@H](O)C/C=C/[C@H]2[C@H](O)CC(=O)[C@@H]2CCCCCCC(=O)OC)CCC1 [Butaprost, reference compound]	–	–	> 30 mg/kg	–	> 10000 nM	–
CCCCC(C)(C)C(O)/C=C/[C@H]1CCC(=O)N1CCc1ccc(C(=O)O)cc1 (stereo in doubt) [Example 5, 4-(2-{2-[(1E,3S)-3-hydroxy-4,4-dimethyloct-1-enyl]-5-oxopyrrolidin-1-yl}ethyl)benzoic acid]	0.732 nM	18 mg/kg	3 mg/kg	1240 nM	–	EC50 [5, 10]: 0.014 nM
O=C(O)c1ccc(CCN2C(=O)CC[C@@H]2/C=C/[C@@H](O)C2(c3ccccc3)CC2)cc1 [Example 7, 4-(2-{(2R)-2-[(1E,3R)-3-hydroxy-3-(1-phenylcyclopropyl)prop-1-enyl]-5 oxopyrrolidin-1-yl}ethyl)benzoic acid]	16 nM	–	0.73 mg/kg	220 nM	2 nM	–
CCCCC[C@H](O)/C=C/[C@H]1[C@H](O)CC(=O)[C@@H]1C/C=C\CCCC(=O)O [PGE2, reference compound]	–	–	–	–	–	average of ova obtained ([3]; Group 3: 13.5 mg/kg): an average of 19.4 ova were obtained for Group 3;
O=C(O)c1ccc(CCN2C(=O)CCN2CCC(O)Cc2cccc(C(F)(F)F)c2)cc1 (centres unmarked) [4-[2-(2-{3-hydroxy-4-[3-(trifluoromethyl)phenyl]butyl}-5-oxopyrazolidin-1-yl)ethyl]benzoic acid, reference compound]	–	–	–	–	–	Ki [1, 11]: 23 nM; ED50 [3, 9]: 5 mg/kg; EC50 ([5]; read-out: EC50 measured as described in Example 84 (EP4)): 0.2 nM
CCCCC(C)(C)C(O)/C=C/[C@H]1CCC(=O)N1CCc1ccc(C(=O)O)cc1 (stereo in doubt) [Example 6, 4-(2-{2-[(1E,3R)-3-hydroxy-4,4-dimethyloct-1-enyl]-5-oxopyrrolidin-1-yl}ethyl)benzoic acid]	20 nM	–	–	2100 nM	–	–
CCCCC1([C@H](O)/C=C/[C@H]2CCC(=O)N2CCc2ccc(C(=O)O)cc2)CCC1 [Example 45, 4-(2-{(2R)-2-[(1E,3R)-3-(1-butylcyclobutyl)-3-hydroxyprop-1-enyl]-5-oxopyrrolidin-1-yl}ethyl)benzoic acid]	–	1 mg/kg	–	–	2 nM	EC50 [5, 10]: 0.3 nM; ID50 [6]: 0.010 mg/kg
CS(=O)(=O)NC(=O)CCC/C=C\C[C@H]1C(=O)C[C@@H](O)[C@@H]1/C=C/[C@@H](O)COc1ccccc1 [Sulprostone, reference compound]	–	–	> 27 mg/kg	–	7740 nM	–
O=C(O)c1ccc(CCN2C(=O)CC[C@@H]2/C=C/[C@@H](O)Cc2ccccc2)cc1 [Example 31, 4-[2-{(2R)-2-[(1E,3S)-3-hydroxy-4-phenylbut-1-enyl]-5-oxopyrrolidin-1-yl}ethyl)benzoic acid]	–	1 mg/kg	0.32 mg/kg	–	0.05 nM	ID50 [6]: 0.003 mg/kg
O=C(O)c1ccc(CCN2C(=O)CCN2CCC(O)Cc2cccc(I)c2)cc1 (centres unmarked) [4-(2-{2-.[4-(3-iodophenyl)-3-hydroxybutyl]-5-oxopyrazolidin-1-yl}ethyl)benzoic acid, reference compound]	–	–	–	–	–	Ki [1, 11]: 14 nM; release of ova ([3]; orally, single dose of 20 mg/kg): 10±3 ova; Ki ([4]; read-out: Ki on EP2): 4450 nM
CCCCCC[C@H](O)/C=C/[C@H]1CCC(=O)N1CCc1ccc(C(=O)O)cc1 [Example 10, 4-(2-{(2R)-2-[(1E,3S)-3-hydroxynon-1-enyl]-5-oxopyrrolidin-1-yl}ethyl) benzoic acid]	–	–	–	–	1 nM	–
